Results: publication PMC6813295, “A tumour-selective cascade activatable self-detained system for drug delivery and cancer imaging” (Nature Communications, 2019)
Where a SMILES comes first, the peptide text is derived from it. The star is where a group is joined. X1 = CC1(C)C(=CC=C2CCCC(C=CC3=[N+](CCCCCC(=O)O)c4ccccc4C3(C)C)=C2*)N(CCCCCC(=O)O)c2ccccc21

Assays:
H460 cells = format: cell-based, human; conditions: 50 μM for 6, 12, 24 h (flow cytometry), 1–100 μM 24 h (CCK-8)
Description: lysed in an ice bath at 1℃, 16000g for 15 minutes, the supernatant was transferred to a pre-cooled centrifuge tube in an ice bath. For each group, 20 μM (final concentration) Ac-DEVD-AMC and 100μl cell lysate were added to 1 ml Protease Assay Buffer [20 mM HEPES (pH 7.5), 10% glycerol, 2 mM DTT]. The reaction mixtures were incubated for 1 hour at 37 °C. The AMC released from Ac-DEVD-AMC was measured using a spectrofluorometer with an excitation wavelength of 380 nm and an emission wavelength range of 400-550 nm.
Flow cytometry analysis. A density of 1 × 10^5 H460 cells per well were seeded in the 6-well plates in 1640 medium which contains 10% fetal bovine serum and 1% penicillin–streptomycin, then cultured at 37 °C in a humidified atmosphere with 5% CO 2 for 16 h. Then molecules 1, 2 and 3 (50 μM) were added to each well, and the cells were incubated for additional 6 h, 12 h and 24 h, respectively. The apoptosis of the collected cells stained by Annexin V -FITC and PI (propidium iodide) was studied by […]
Cell viability assays . CCK-8 (cell counting kit-8) assay was carried out to investigate the cell viability.
H460 cells were utilized to evaluate the cytotoxicity of molecules 1, 2 and 3 by the CCK-8 assay.
Molecules 1, 2 and 3 were dispersed in 1640 medium with different concentration s such as 1, 5, 10, 30, 60 and 100 μM. The cells with the density of 5 × 10^4 cells per well were seeded in the 96 -well plates in 1640 medium containing 10% fetal bovine serum and 1% penicillin –streptomycin, then cultured at 37 °C in a humidified atmosphere with 5% CO 2 for 16 h. […]
Microplate reader was used to measure the UV -Vis absorptions of sample wells (A sample), Ablack and control wells (A control) at a test wavelength of 450 nm and a reference wavelength of 690 nm, […]
Blood circulation. […] The supernatant of the blood samples was collected by centrifugation at 10 000 rpm for 10 min , and the content of compound 1, 2 and 3 in the supernatant w ere determined using fluorescence spectrophotometric measurement. […]
3 h. […] Morphologies of liposomes were measured by Tecnai G20 electron microscope. […]

[1] = Blood circulation pharmacokinetics; format: in vivo, mouse; conditions: Balb/c mice, IV single dose 14 mg/kg, blood 0.017–6 h, fluorescence spectroscopy, DAS2.0, mean ± s.d. n = 3
Description: respectively. Cell viability (%) was equal to (Asample - Ablank)/ (Acontrol - Ablank) x 100. All the experiments were performed in triplicate.
Blood circulation. To investigate the pharmacokinetics of the compound 1, 2 and 3, Balb/c mice were randomly divided into three groups (n = 3). Each group was intravenous (iv) injected with a single dose of 14 mg/kg of compou nd 1, 2 or 3. Blood samples were collected via the orbital venous plexus at 0.017, 0.08 3, 0.25, 0.5, 1, 3, 4 and 6 h post injection and collected into EDTA tubes. The supernatant of the blood samples was collected by centrifugation at 10 000 rpm for 10 min , and the content of compound 1, 2 and 3 in the supernatant w ere determined using fluorescence spectrophotometric measurement. Data for known concentrations of compound 1, 2 or 3 (concentration from 1.2 μM to 25.0 μM) were used to make the standard curve, the “Predicted R-Squared” value of 0.99.
Preparation and characteristic of liposomes. Liposomes were prepared by a thin lipid film hydration method followed by extrusion. Briefly, PC: CH: DSPE -PEG-NHS = 66: 32: 2 (molar ratio) were dissolved in a chloroform/methanol mixture (4: 1) in a round bottom flask. The lipid film was hydrated with PBS (pH 7.4) after evaporation of the chloroform/methanol solvents. […]
3 h. […] Morphologies of liposomes were measured by Tecnai G20 electron microscope.

H460 tumour-bearing mice = format: in vivo, mouse; conditions: IV 14 mg/kg; for retention efficiency in tumour up to 48 h post injection: integrated fluorescence in tumour normalized to 1 h, n = 3, repeated three times
Description: Animal experiments were performed in accordance with the Guide for the Care and Use of Laboratory Animals and approved by the Institutional Animal Care and Use Committee (IACUC) of the National Center for Nanoscience and Technology (NCNST), China. Female Balb/c nude mice (6–8 weeks, 18–22 g) were purchased from Vital River Laboratory Animal Technology Co. Ltd. H460 cells were subcutaneously implanted into these mice on the right flank. Then the mice were randomly grouped (n = 3). When the tumour grew to a single aspect of about 0.5 cm, we injected the molecules 1, 2 and 3 intravenously in the same dose of 14 mg/kg in PBS solution, respectively. Fluorescence images were measured by a Maestro II in vivo imaging system (CRi) at 1, 2, 4, 6, 8, 12, 24, 48, 72, 96 and 120 h post injection. Further, tumours and other major organs (i.e., heart, liver, spleen, lung and kidney) were collected for ex vivo fluorescence imaging at 48 h post injection. The organ biodistribution of the 1, 2 and 3 was examined using H460 xenografts mice. The mice were sacrificed at 2, 4, 8, 12, 24 or 48 h post injection. Finally, all the major organs and tumour were collected, weighed, and homogenized (0.3 mL of lysis buffer per 100 mg of tissues). The homogeneous tissue solutions were obtained for fluorescence imaging by IVIS Spectrum CT. Known concentrations of compound 1, 2 or 3 are used to make the standard curve (concentration from 2.8 to 25.2 μg/mL), the “Predicted R-Squared” value of 0.99. Then we utilized this standard curve to measure the molecule content in each tissue. In addition, EJ xenograft tumour mice model was built, as above described, to validate the generality of the strategy.
Supplementary Figure 31∣ Representative NIR fluorescence images of H460 tumour-bearing mice after intravenous administration with molecules 1, 2 and 3 (14 mg/kg, n = 3). Images were acquired at 1 h, 4 h, 12 h, 24 h 48 h, 72 h, 96 h and 120 h post injection (p.i.). The yellow circles marked the same size of the tumour region.
(1 picture or pasted object on this page, not shown here)
Supplementary Figure 32∣ Representative NIR fluorescence images o f H460 tumour-bearing mice after intravenous administrat ed with molecules 1 (14 mg/kg, n = 3) in three groups (In order to test the repeatability of the results, we chose different batches of mice to repeat trials . They were named 1-group, 2-group and 3-group, respectively.). Images were acquired at 1 h, 4 h, 12 h, 24 h 48 h and 72 h post injection (p.i.). All data were obtained by n ormalized fluorescence intensity in tumour. Data are presented as the mean ± s.d. (n= 3).

Row | SMILES | apoptotic cell death (flow cytometry and cell viability assays) (H460 cells) | blood circulation half-life (t1/2β) [1] | retained tumour signal on the fifth day relative to molecules 2 and 3 (H460 tumour-bearing mice) | retention efficiency in tumour up to 48 h post injection (H460 tumour-bearing mice) | fluorescence signal retained in tumour on the fifth day (H460 tumour-bearing mice; normalized fluorescence intensity in tumour)
1 | CC[C@H](C)[C@H](NC(=O)[C@@H]1CCCN1C(=O)[C@@H](NC(=O)[C@H](C)N)C(C)C)C(=O)N[C@@H](C)C(=O)N[C@@H](CCC(N)=O)C(=O)N[C@@H](CCCCN)C(=O)N[C@@H](CC(=O)O)C(=O)N[C@@H](CCC(=O)O)C(=O)N[C@H](C(=O)N[C@@H](CC(=O)O)C(=O)N[C@@H](CCCCN)C(=O)N[C@@H](CC(C)C)C(=O)N[C@H](C(=O)N[C@@H](Cc1ccccc1)C(=O)N[C@@H](Cc1ccccc1)C(=O)N[C@@H](C)C(=O)N[C@@H](CCC(=O)O)C(=O)N[C@@H](CSC1=C(C=CC2=[N+](CCCCCC(=O)O)c3ccccc3C2(C)C)CCCC1=CC=C1N(CCCCCC(=O)O)c2ccccc2C1(C)C)C(=O)NCC(=O)O)C(C)C)C(C)C [molecule 1] (H-AVPIAQKDEVDKLVFFAEC(X1)G-OH) | No apoptosis was observed | 1.15 ± 0.10 h | ~2.5 fold | approximately 22.0% | over 16.0%
2 | CSCC[C@H](N)C(=O)N[C@@H](CC(=O)O)C(=O)N[C@@H](CCC(=O)O)C(=O)N[C@@H](CCCCN)C(=O)N[C@@H](C)C(=O)N[C@@H](CCC(N)=O)C(=O)N[C@@H](CCCCN)C(=O)N[C@@H](CC(=O)O)C(=O)N[C@@H](CCC(=O)O)C(=O)N[C@H](C(=O)N[C@@H](CC(=O)O)C(=O)N[C@@H](CCCCN)C(=O)N[C@@H](CC(C)C)C(=O)N[C@H](C(=O)N[C@@H](Cc1ccccc1)C(=O)N[C@@H](Cc1ccccc1)C(=O)N[C@@H](C)C(=O)N[C@@H](CCC(=O)O)C(=O)N[C@@H](CSC1=C(C=CC2=[N+](CCCCCC(=O)O)c3ccccc3C2(C)C)CCCC1=CC=C1N(CCCCCC(=O)O)c2ccccc2C1(C)C)C(=O)NCC(=O)O)C(C)C)C(C)C [molecule 2] (H-MDEKAQKDEVDKLVFFAEC(X1)G-OH; N-terminus assumed) | No apoptosis was observed | – | – | less than 10.0% | –
3 | CC[C@H](C)[C@H](NC(=O)[C@@H]1CCCN1C(=O)[C@@H](NC(=O)[C@H](C)N)C(C)C)C(=O)N[C@@H](C)C(=O)N[C@@H](CCC(N)=O)C(=O)N[C@@H](CCCCN)C(=O)N[C@@H](CC(=O)O)C(=O)N[C@@H](CCC(=O)O)C(=O)N[C@H](C(=O)N[C@@H](CC(=O)O)C(=O)N[C@@H](CCC(=O)O)C(=O)N[C@@H](CSC1=C(C=CC2=[N+](CCCCCC(=O)O)c3ccccc3C2(C)C)CCCC1=CC=C1N(CCCCCC(=O)O)c2ccccc2C1(C)C)C(=O)NCC(=O)O)C(C)C [molecule 3] (H-AVPIAQKDEVDEC(X1)G-OH; N-terminus assumed) | No apoptosis was observed | 1.06 ± 0.17 h | – | less than 10.0% | –
